Data published in PMC12316285, “The porphyran degradation system is complete, phylogenetically and geographically diverse across the gut microbiota of East Asian populations” (PLOS One, 2025).

What was measured:
BpS1_11 (Bacple_01701) = molecular target: T1, BpS1_11 (Bacple_01701) (Phocaeicola plebeius, UniProt B5CYA4); assay: 1H NMR of products; format: biochemical; settings: desulfation of the non-reducing-end L-galactose 6-sulfate
T1 construct: signal peptide removed; pET-28 or pFO4, HisTrap purified; formylglycine sulfatase (Ser83 is formylglycine in mature enzyme)
T1 sequence (B5CYA4 entry or part of it): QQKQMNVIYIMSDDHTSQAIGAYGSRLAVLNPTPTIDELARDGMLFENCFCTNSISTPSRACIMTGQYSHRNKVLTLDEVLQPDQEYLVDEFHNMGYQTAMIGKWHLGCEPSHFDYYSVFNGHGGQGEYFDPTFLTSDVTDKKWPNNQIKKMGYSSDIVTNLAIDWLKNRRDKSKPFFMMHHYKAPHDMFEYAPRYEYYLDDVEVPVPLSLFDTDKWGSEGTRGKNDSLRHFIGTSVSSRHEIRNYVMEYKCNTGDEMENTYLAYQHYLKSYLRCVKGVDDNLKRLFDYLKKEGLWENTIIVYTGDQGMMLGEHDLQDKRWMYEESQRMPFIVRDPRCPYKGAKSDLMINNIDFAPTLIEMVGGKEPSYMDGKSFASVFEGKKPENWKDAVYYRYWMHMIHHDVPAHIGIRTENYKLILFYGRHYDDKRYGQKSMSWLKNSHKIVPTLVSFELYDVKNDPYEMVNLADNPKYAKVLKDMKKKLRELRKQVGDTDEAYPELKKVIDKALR

BpGH16C (Bacple_01703) = molecular target: T2, BpGH16C (Bacple_01703) (Phocaeicola plebeius, UniProt B5CYA6); assay: X-ray crystal structure, […] Å, soaked crystal; format: binding; settings: inactive mutant; soaked with tetrasaccharide, only a trisaccharide modelled (subsites -1 to -3; Figure 2 legend says disaccharide); pH 7.5
T2 construct: signal peptide removed; pET-28 or pFO4, HisTrap purified; three independent molecules in asymmetric unit of complex
T2 sequence (B5CYA6 entry or part of it E178L): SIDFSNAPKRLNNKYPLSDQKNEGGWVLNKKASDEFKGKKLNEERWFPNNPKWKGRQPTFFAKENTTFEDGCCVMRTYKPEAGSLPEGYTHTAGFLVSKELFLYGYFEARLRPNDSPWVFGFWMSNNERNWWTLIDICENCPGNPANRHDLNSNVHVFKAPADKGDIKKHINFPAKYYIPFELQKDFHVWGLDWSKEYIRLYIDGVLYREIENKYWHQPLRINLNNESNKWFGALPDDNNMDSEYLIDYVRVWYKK

BpGH2C (Bacple_01706) = molecular target: T3, BpGH2C (Bacple_01706) (Phocaeicola plebeius, UniProt B5CYA9); assay: 1H NMR after sequential enzyme incubation; format: biochemical; settings: substrate made in situ by BpS1_[…] then BpGH29
T3 construct: signal peptide removed; pET-28 or pFO4, HisTrap purified
T3 sequence (B5CYA9 1-1086): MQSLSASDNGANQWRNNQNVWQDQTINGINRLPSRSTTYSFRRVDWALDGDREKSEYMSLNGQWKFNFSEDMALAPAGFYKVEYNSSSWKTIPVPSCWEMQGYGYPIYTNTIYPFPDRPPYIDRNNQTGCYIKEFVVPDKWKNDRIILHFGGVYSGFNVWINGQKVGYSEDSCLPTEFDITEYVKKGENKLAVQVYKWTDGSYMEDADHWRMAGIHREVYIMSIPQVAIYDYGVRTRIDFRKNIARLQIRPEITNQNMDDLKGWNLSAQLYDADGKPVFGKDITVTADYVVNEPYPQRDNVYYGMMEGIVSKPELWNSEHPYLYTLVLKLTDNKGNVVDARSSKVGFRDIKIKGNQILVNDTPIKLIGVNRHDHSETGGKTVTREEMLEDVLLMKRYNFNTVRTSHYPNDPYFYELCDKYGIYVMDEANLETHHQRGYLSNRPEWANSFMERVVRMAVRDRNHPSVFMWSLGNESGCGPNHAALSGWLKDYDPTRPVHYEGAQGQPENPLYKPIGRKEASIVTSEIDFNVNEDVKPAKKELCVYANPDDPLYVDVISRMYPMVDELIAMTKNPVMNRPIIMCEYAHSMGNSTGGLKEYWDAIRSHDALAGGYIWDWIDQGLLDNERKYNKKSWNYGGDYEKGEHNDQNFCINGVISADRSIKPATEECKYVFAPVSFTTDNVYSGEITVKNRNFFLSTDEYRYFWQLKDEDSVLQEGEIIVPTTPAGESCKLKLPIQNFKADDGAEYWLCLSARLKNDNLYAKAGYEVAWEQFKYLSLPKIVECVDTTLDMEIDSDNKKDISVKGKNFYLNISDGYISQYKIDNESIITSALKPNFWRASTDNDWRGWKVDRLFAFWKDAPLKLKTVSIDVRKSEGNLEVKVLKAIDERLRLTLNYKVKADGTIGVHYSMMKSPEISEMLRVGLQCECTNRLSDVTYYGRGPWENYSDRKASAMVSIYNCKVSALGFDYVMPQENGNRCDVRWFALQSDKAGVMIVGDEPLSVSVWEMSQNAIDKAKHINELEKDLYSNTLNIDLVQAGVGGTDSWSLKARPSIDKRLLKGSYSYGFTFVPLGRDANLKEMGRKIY

SMILES | 1H NMR of products (BpS1_11 (Bacple_01701)) | X-ray crystal structure, 1.8 Å, soaked crystal (BpGH16C (Bacple_01703)) | 1H NMR after sequential enzyme incubation (BpGH2C (Bacple_01706))
O=S(=O)(O)OC[C@@H]1O[C@@H](O[C@H]2[C@@H](O)[C@@H](CO)O[C@@H](O[C@H]3[C@@H](O)[C@H](O)[C@H](O[C@H]4[C@@H](O)[C@@H](CO)OC(O)[C@@H]4O)O[C@H]3COS(=O)(=O)O)[C@@H]2O)[C@@H](O)[C@H](O)[C@@H]1O (stereo partly drawn) [L-α-6O-sulfate-Gal-(1 → 3)-D-β-Gal-(1 → 4)-L-α-6O-sulfate-Gal-(1 → 3)-D-a/β-Gal] | After desulfation of the tetra-saccharides | we crystallized the E145L inactive mutant with the tetrasaccharide | –
O=S(=O)(O)OC[C@@H]1O[C@@H](O[C@H]2[C@@H](O)[C@@H](CO)OC(O)[C@@H]2O)[C@@H](O)[C@H](O)[C@@H]1O[C@@H]1O[C@H](CO)[C@H](O)[C@H](O)[C@H]1O (stereo partly drawn) [trisaccharide with non-methylated D-galactose at the non-reducing end] | – | – | methylated or non-methylated D-galactose residue located at the non-reducing end of the trisaccharide was cleaved
